The target of this assay is T1, APOL1 (Homo sapiens, UniProt O14791).
T1 sequence (O14791 1-398 S342G/I384M): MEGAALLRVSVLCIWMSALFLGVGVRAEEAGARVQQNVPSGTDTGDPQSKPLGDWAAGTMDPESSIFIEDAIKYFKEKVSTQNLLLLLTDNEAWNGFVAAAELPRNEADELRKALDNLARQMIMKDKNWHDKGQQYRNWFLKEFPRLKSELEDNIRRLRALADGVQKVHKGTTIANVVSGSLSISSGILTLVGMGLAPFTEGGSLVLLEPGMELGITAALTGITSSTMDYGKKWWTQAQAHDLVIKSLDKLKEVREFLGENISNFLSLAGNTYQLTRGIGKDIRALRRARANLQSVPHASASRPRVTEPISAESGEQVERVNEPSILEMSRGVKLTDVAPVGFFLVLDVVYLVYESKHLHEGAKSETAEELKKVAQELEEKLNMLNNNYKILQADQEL
Description: MultiTox-Fluor Multiplex Cytotoxicity Assay in tet-inducible APOL1 T-REx-HEK293 cells (cell rescue, ratio of dead to live cells). As to conditions: tet-inducible transgenic APOL1 T-REx-HEK293 cell lines, 50 ng/mL tet, 24 hours; read-out: IP50 (i.e., IC50 for cell proliferation). In kind it is cell-based. A digest of the protocol:
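T-REx-HEK293 cells with tet-inducible APOL1 were treated with compound (10 μM top, 10-point 3-fold dilution, duplicate) plus 50 ng/mL tetracycline for 24 h at 37° C, in DMEM with 2% tet-free FBS. MultiTox-Fluor protease signals gave a dead/live ratio, normalized to no tet (100% viability) and tet alone (0%).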

pIC50: −log10 of the molar value.

On to `CC1COC2(CCN(Cc3cn(CCS(C)(=O)=O)nn3)[C@@H](C)C2)c2cc(C(F)(F)F)sc21` (some centres unmarked) [Compound 541], for which the pIC50 is above 7.00.

With `C[C@H]1C[C@@]2(CCN1Cc1cnn(C)c1)OCC(O)c1sc(C(F)(F)F)cc12` (stereo partly drawn) [Compound 542, (2′S,4R)-2′-methyl-1′-[(1-methylpyrazol-4-yl)methyl]-2-(trifluoromethyl)spiro[6,7-dihydrothieno[3,2-c]pyran-4,4′-piperidine]-7-ol], the pIC50 was above 7.00.

Turning to `CC(O)Cn1cc(CN2CC[C@]3(C[C@@H]2C)OCCc2cc(CC(F)F)sc23)nn1` (stereo partly drawn) [Compound 543, 1-[4-[[(2′S, 7R)-2-(2,2-difluoroethyl)-2′-methyl-spiro[4,5-dihydrothieno[2,3-c]pyran-7,4′-piperidine]-1′-yl]methyl]triazol-1-yl]propan-2-ol], the pIC50 was above 7.00.

On to `C[C@H]1C[C@@]2(CCN1Cc1cn(C(C)(C)CO)nn1)OCCc1cc(CC(F)F)sc12` [Compound 544], for which the pIC50 is 6.00 to 6.30.

As to `C[C@H]1C[C@@]2(CCN1Cc1cn(CCCS(C)(=O)=O)nn1)OCCc1cc(CC(F)F)sc12` [Compound 545], the pIC50 is above 7.00.

On to `C[C@H]1C[C@@]2(CCN1Cc1cn(CC(C)(CO)CO)nn1)OCCc1cc(CC(F)F)sc12` [Compound 546], for which the pIC50 was above 7.00.

As to `C[C@H]1C[C@@]2(CCN1Cc1cn(C3CCOCC3)nn1)OCCc1cc(CC(F)F)sc12` [Compound 547], the pIC50 is above 7.00.

Take `C[C@H]1C[C@@]2(CCN1Cc1cn(CC(O)C(C)(C)O)nn1)OCCc1cc(CC(F)F)sc12` (some centres unmarked) [Compound 548]: the pIC50 is above 7.00.

As for `C[C@H]1C[C@@]2(CCN1C[C@H]1C[C@@H](NS(=O)(=O)CC#N)C1)OCCc1cc(CC(F)F)sc12` [Compound 549, 1-cyano-N-((1R,3s)-3-(((2S,4R)-2′-(2,2-difluoroethyl)-2-methyl-4′,5′-dihydrospiro[piperidine-4,7′-thieno[2,3-c]pyran]-1-yl)methyl)cyclobutyl)methanesulfonamide], the pIC50 was above 7.00.

As to `C[C@H]1C[C@@]2(CCN1C[C@H]1C[C@@H](NC(=O)C3CC(F)(F)C3)C1)OCCc1cc(CC(F)F)sc12` [Compound 550], the pIC50 was above 7.00.

Take `C[C@H]1C[C@@]2(CCN1C[C@H]1C[C@@H](NC(=O)C3CC3(F)F)C1)OCCc1cc(CC(F)F)sc12` (some centres unmarked) [Compound 551]: the pIC50 was above 7.00.

On to `C[C@H]1C[C@@]2(CCN1C[C@H]1C[C@@H](NS(=O)(=O)C3CC3)C1)OCCc1cc(CC(F)F)sc12` [Compound 552], for which the pIC50 was above 7.00.

Turning to `CCS(=O)(=O)N[C@H]1C[C@@H](CN2CC[C@]3(C[C@@H]2C)OCCc2cc(CC(F)F)sc23)C1` [Compound 553], the pIC50 was above 7.00.

`COC(=O)N[C@H]1C[C@@H](CN2CC[C@]3(C[C@@H]2C)OCCc2cc(CC(F)F)sc23)C1` [Compound 554]: the pIC50 is above 7.00.

Consider `Cc1cc(C(=O)N[C@H]2C[C@@H](CN3CC[C@]4(C[C@@H]3C)OCCc3cc(CC(F)F)sc34)C2)on1` [Compound 555], for which the pIC50 is above 7.00.

For `C[C@H]1C[C@@]2(CCN1C[C@H]1C[C@@H](NC(=O)C3CC3)C1)OCCc1cc(CC(F)F)sc12` [Compound 556], the pIC50 is above 7.00.

`C[C@H]1C[C@@]2(CCN1C[C@H]1C[C@@H](NC(=O)C3CCC3)C1)OCCc1cc(CC(F)F)sc12` [Compound 557]: the pIC50 is above 7.00.

Take `CC(=O)N[C@H]1C[C@@H](CN2CC[C@]3(C[C@@H]2C)OCCc2cc(CC(F)F)sc23)C1` [Compound 558]: the pIC50 is above 7.00.

`C[C@H]1C[C@@]2(CCN1Cc1cnn(CCS(C)(=O)=O)c1)OCCc1cc(CC(F)F)sc12` [Compound 559, (2′S, 7R)-2-(2,2-difluoroethyl)-2′-methyl-1′-[[1-(2-methylsulfonylethyl)pyrazol-4-yl]methyl]spiro[4,5-dihydrothieno[2,3-c]pyran-7,4′-piperidine]]: the pIC50 was above 7.00.

Consider `C[C@H]1C[C@@]2(CCN1Cc1ncc(NC(C)(C)CO)cn1)OCCc1cc(CC(F)F)sc12` [Compound 560], for which the pIC50 is above 7.00.

With `C[C@H]1C[C@@]2(CCN1Cc1cnn(CC(C)(CO)CO)c1)OCCc1cc(CC(F)F)sc12` [Compound 561, 2-[[4-[[(2′S, 7R)-2-(2,2-difluoroethyl)-2′-methyl-spiro[4,5-dihydrothieno[2,3-c]pyran-7,4′-piperidine]-1′-yl]methyl]pyrazol-1-yl]methyl]-2-methyl-propane-1,3-diol], the pIC50 is above 7.00.

Consider `C[C@H]1C[C@@]2(CCN1Cc1cc[nH]n1)OCCc1cc(CC(F)F)sc12` [Compound 562], for which the pIC50 was above 7.00.

`C[C@H]1C[C@@]2(CCN1Cc1cnn(CCO)c1)OCCc1cc(CC(F)F)sc12` [Compound 563]: the pIC50 was above 7.00.

With `C[C@H]1C[C@@]2(CCN1Cc1ccc3c(c1)n(C)c(=O)n3C)OCCc1cc(CC(F)F)sc12` [Compound 564], the pIC50 was above 7.00.

For `C[C@H]1C[C@@]2(CCN1Cc1cnn(C)c1)OCCc1cc(CC(F)F)sc12` [Compound 565], the pIC50 was above 7.00.

`C[C@H]1C[C@@]2(CCN1Cc1cn(C)nn1)OCCc1cc(CC(F)F)sc12` [Compound 566]: the pIC50 is above 7.00.

Consider `C[C@H]1C[C@@]2(CCN1Cc1cncnc1)OCCc1cc(CC(F)F)sc12` [Compound 567], for which the pIC50 is above 7.00.

For the compound `C[C@H]1C[C@@]2(CCN1CC1CC1)OCCc1cc(CC(F)F)sc12` [Compound 568], the pIC50 was above 7.00.

Turning to `C[C@H]1C[C@@]2(CCN1Cc1ccnnc1)OCCc1cc(CC(F)F)sc12` [Compound 569], the pIC50 is above 7.00.

Regarding `C[C@H]1C[C@@]2(CCN1Cc1cccc(=O)[nH]1)OCCc1cc(CC(F)F)sc12` [Compound 570], the pIC50 was 6.30 to 7.00.

Take `C[C@H]1C[C@@]2(CCN1Cc1ccnn1C)OCCc1cc(CC(F)F)sc12` [Compound 571]: the pIC50 was 6.30 to 7.00.

As to `CCN1CC[C@]2(C[C@@H]1C)OCCc1cc(CC(F)F)sc12` [Compound 572], the pIC50 is 6.30 to 7.00.

Regarding `C[C@H]1C[C@@]2(CCN1Cc1cn(C)cn1)OCCc1cc(CC(F)F)sc12` [Compound 573], the pIC50 is 6.30 to 7.00.

As to `C[C@H]1C[C@@]2(CCN1Cc1cccn(C)c1=O)OCCc1cc(CC(F)F)sc12` [Compound 574], the pIC50 is 6.00 to 6.30.

In the case of `C[C@H]1C[C@@]2(CCN1C1COC1)OCCc1cc(CC(F)F)sc12` [Compound 575], the pIC50 is 6.00 to 6.30.

Regarding `C[C@H]1C[C@@]2(CCN1CC1CCC1)OCCc1cc(CC(F)F)sc12` [Compound 576], the pIC50 was 6.30 to 7.00.

As for `C[C@H]1C[C@@]2(CCN1Cc1ccc[nH]c1=O)OCCc1cc(CC(F)F)sc12` [Compound 577], the pIC50 is 6.30 to 7.00.

Regarding `C[C@H]1C[C@@]2(CCN1Cc1ccn(C)n1)OCCc1cc(CC(F)F)sc12` [Compound 578], the pIC50 is above 7.00.

Take `C[C@H]1C[C@@]2(CCN1Cc1ccon1)OCCc1cc(CC(F)F)sc12` [Compound 579]: the pIC50 is above 7.00.

Consider `C[C@H]1C[C@@]2(CCN1Cc1ncco1)OCCc1cc(CC(F)F)sc12` [Compound 580], for which the pIC50 is 6.30 to 7.00.

As to `CC(C)CN1CC[C@]2(C[C@@H]1C)OCCc1cc(CC(F)F)sc12` [Compound 581], the pIC50 is 6.30 to 7.00.

As for `C[C@H]1C[C@@]2(CCN1CCC(F)(F)F)OCCc1cc(CC(F)F)sc12` [Compound 582], the pIC50 is 6.00 to 6.30.

Regarding `C[C@H]1C[C@@]2(CCN1CC1CCOC1)OCCc1cc(CC(F)F)sc12` (some centres unmarked) [Compound 583], the pIC50 was 6.30 to 7.00.

Turning to `Cc1cc(CN2CC[C@]3(C[C@@H]2C)OCCc2cc(CC(F)F)sc23)no1` [Compound 584], the pIC50 is above 7.00.

Turning to `C[C@H]1C[C@@]2(CCN1CC1(C)COC1)OCCc1cc(CC(F)F)sc12` [Compound 585], the pIC50 is 6.30 to 7.00.

Turning to `C[C@H]1C[C@@]2(CCN1CC1CCCO1)OCCc1cc(CC(F)F)sc12` (some centres unmarked) [Compound 586], the pIC50 was 6.00 to 6.30.

Consider `C[C@H]1C[C@@]2(CCN1Cc1cncn1C)OCCc1cc(CC(F)F)sc12` [Compound 587], for which the pIC50 was 6.30 to 7.00.

In the case of `C[C@H]1C[C@@]2(CCN1Cc1cc(F)c[nH]c1=O)OCCc1cc(CC(F)F)sc12` [Compound 588], the pIC50 is 6.00 to 6.30.

As for `C[C@H]1C[C@@]2(CCN1Cc1ncccc1F)OCCc1cc(CC(F)F)sc12` [Compound 589], the pIC50 was 6.00 to 6.30.

Regarding `Cc1c[nH]c(=O)c(CN2CC[C@]3(C[C@@H]2C)OCCc2cc(CC(F)F)sc23)c1` [Compound 590], the pIC50 is 6.00 to 6.30.

As to `C[C@H]1C[C@@]2(CCN1C1CC(O)C1)OCCc1cc(CC(F)F)sc12` (some centres unmarked) [Compound 591], the pIC50 was 6.00 to 6.30.

For `C[C@H]1C[C@@]2(CCN1Cc1nccn1C)OCCc1cc(CC(F)F)sc12` [Compound 592], the pIC50 was 6.00 to 6.30.

For the compound `COc1ncc(CN2CC[C@]3(C[C@@H]2C)OCCc2cc(CC(F)F)sc23)c(OC)n1` [Compound 593], the pIC50 was above 7.00.

On to `C[C@H]1C[C@@]2(CCN1CC(O)c1ccccc1)OCCc1cc(CC(F)F)sc12` (stereo partly drawn) [Compound 594, 2-[(2′S, 7R)-2-(2,2-difluoroethyl)-2′-methyl-spiro[4,5-dihydrothieno[2,3-c]pyran-7,4′-piperidine]-1′-yl]-1-phenyl-ethanol], for which the pIC50 was above 7.00.

For the compound `C[C@H]1C[C@@]2(CCN1C1CCCC1O)OCCc1cc(CC(F)F)sc12` (some centres unmarked) [Compound 595], the pIC50 is above 7.00.

Consider `C[C@H]1C[C@@]2(CCN1CC(O)C(N)=O)OCCc1cc(CC(F)F)sc12` (some centres unmarked) [Compound 596], for which the pIC50 is above 7.00.

The values above are taken from patent US20250171459A1, “2-METHYL-4',5'-DIHYDROSPIRO[PIPERIDINE-4,7'-THIENO[2,3-C]PYRAN] DERIVATIVES AS INHIBITORS OF APOL1 AND METHODS OF USING SAME” (Vertex Pharmaceuticals Incorporated, priority 2022, published 2025).
